For series [1] the following is noted: 21-membered ring.
In series [2] the test system is Nrf2. Briefly: Nrf2 Cellular Assay (pGL4.37[luc2P/ARE/Hygro] luciferase reporter in HepG2 cells). Type of series: cell-based. Conditions: Homo sapiens, HepG2, 6 h, ARE luciferase, 6 hours compound treatment. Here is the method:
Example 2.2 Nrf2 Cellular Assay
• 1. pGL4.37[luc2P/ARE/Hygro] vector was diluted to 25 ng/μL in Opti-MEM. • 2. Lipofectamine 3000 was added to a 2:1 lipid:DNA. The mixture was mixed by pipetting and incubate at room temperature for 15 minutes. • 3. HepG2 cells were cultured in complete medium (DMEM+10% FBS). • 4. Trypsin was added to the cells, which were filtered via a cell strainer to remove cell cluster, the cells were then quantified and diluted to 2×10^5 cells/ml in complete medium. • 5. The cells and plasmid were mixed, seeded to 384-well plate 50 μL per well (50 ng DNA/well) and incubated for 24 hours in a 37° C., 5% CO2 incubator.
• 1. Medium was removed from cells and replaced with 36 μL of DMEM+10% FBS per well. • 2. Incubated overnight in a 37° C., 5% CO2 incubator.
• 1. Test compound was serially diluted tin DMSO, and further diluted with DMEM (contains 10% FBS) to 10× final concentration. • 2. 4 μL of the 10× compound was added to each well, the plate was shaken for 10 sec on a plate shaker and incubated for 6 hours in a 37° C., 5% CO2 incubator.
• 1. Plates were removed from the 37° C., 5% CO2 incubator and allowed to cool to room temperature for approximately 15 minutes. • 2. 40 μL of the Glo Luciferase Assay System detection reagents were added, and the plate was shaken for 3 min and luminescence was measured.
For orientation: Reporter assays use an easily measured gene product as a stand-in for the process of interest.

Series [3] deals with T1, Keap1-Nrf2 (Homo sapiens, UniProt Q14145).
T1 construct: purchased Sino Biological 11981-H20B
In words: Keap1-Nrf2 Binding Inhibitory Activity Assay (fluorescence polarization, Keap1_FL + FITC-Nrf2 peptide). Particulars: Keap1-FL, 60 min room temperature. Here is the method:
Example 2.1 Keap1-Nrf2 Binding Inhibitory Activity Assay
• PerkinElmer EnVision 2105 Multilabel Reader • PerkinElmer FITC FP dual emission Label 2100-8060 • LABCYTE Echo 650 • Corning 384-well microplate #4514 • Keap1_FL, Sino Biological, catalog 11981-H20B • FITC-Nrf2 peptide, GL Biochem, Lot No: p210427-XQ892761
• a) Reference titration • 1. Keap1-Nrf2 Assay Buffer was prepared: 10 mM Tris-HCl pH 7.4, 150 mM NaCl, 50 mM EDTA, 0.05% Tween20, 0.1 mg/ml BSA (freshly add before use). • 2. 2.04× Tracer working solution was prepared: 2.04 nM FITC-Nrf2 peptide in Assay Buffer from 1 μM DMSO stock. • 3. 2× Protein working solution was prepared: 25 nM Keap1-FL in Assay Buffer. • 4. 100× compound working solutions with DMSO were prepared. Starting from 100 μM, serial 3-fold dilutions (10 points) were made by the Echo on the 384-well LDV microplate, then 200 nL of compounds, in duplicated wells, were transferred to a Corning 4514 plate. • 5. 9.8 μL per well of the Tracer working solution was added into the Corning 4514 plate. • 6. 10 μL per well of the Protein working solution was added into the Corning 4514 plate, except for the first two columns where Dilution Buffer were added to serve as “positive control”. • 7. The plate was incubated at room temperature for 60 min. • b) Read data on an EnVision with the following setting: Excitation Light (%): 84; Measurement Height: 9.4; G-Factor: 1; Detector Gain 1:220; Detector Gain 2: 220; Flash Number: 50.
All the Test Compounds were considered as having Keap1-Nrf2 binding inhibitory activity.
(In general: In fluorescence polarisation assays a small probe gives low polarisation when free and higher when bound to something large.)

Like-named read-outs stand apart in the source and are kept apart here. Bounds are passed on as bounds.

`CCOC(=O)CC1c2ccc3c(c2)CN(CC3)C(=O)C2CCN(CCOCCn3nnc4c(C)c1ccc43)CC2` (stereo not drawn): the ring closure, isolated yield (from CCOC(=O)CC(c1ccc2c(c1)CNCC2)c1ccc2c(nnn2CCOCCN2CCC(C(=O)O)CC2)c1C, amide bond, 21-membered ring, HATU/DIEA, DMF, 142.0 mM, 25.0 °C) stood at 38.2%.

On to `CCOC(=O)CC1c2ccc3c(c2)CN(CC3)S(=O)(=O)c2ccc(cc2)OCCOCCn2nnc3c(C)c1ccc32` (stereo not drawn), for which the ring closure, isolated yield (from CCOC(=O)CC(c1ccc2c(c1)CN(S(=O)(=O)c1ccc(O)cc1)CC2)c1ccc2c(nnn2CCOCCO)c1C, ether bond, 22-membered ring, DEAD/PPh3, DCM/THF, 28.8 mM, 20.0 °C, 4.0 h) was 73.6%. The compound `Cc1c2ccc3c1nnn3CCOCCN1CCN(CC1)C(=O)c1ccc3ccc(cc3c1)C2CC(=O)OC(C)(C)C` (stereo not drawn) registered a ring closure, isolated yield (from Cc1c(C(CC(=O)OC(C)(C)C)c2ccc3ccc(C(=O)O)cc3c2)ccc2c1nnn2CCOCCN1CCNCC1, amide bond, 21-membered ring, HATU/DIEA, DMF, 72.0 mM, 25.0 °C, 19.0 h) of 19.5%. In turn, `CCOC(=O)CC1c2cccc(c2)CN(C)C(=O)c2ccc(cc2)COCCCn2nnc3c(C)c1ccc32` (stereo not drawn) gave a ring closure, isolated yield (from CCOC(=O)CC(c1cccc(CNC)c1)c1ccc2c(nnn2CCCOCc2ccc(C(=O)O)cc2)c1C, amide bond, 21-membered ring, HATU/DIEA, DMF, 73.0 mM, 25.0 °C) of 58.2%.

As to `CCOC(=O)CC1c2ccc(C)c(c2)CN(C)C(=O)c2ccc(cc2)COCCCn2nnc3c(C)c1ccc32` (stereo not drawn), under “from CCOC(=O)CC(c1ccc(C)c(CNC)c1)c1ccc2c(nnn2CCCOCc2ccc(C(=O)O)cc2)c1C, amide bond, 21-membered ring, HATU/DIEA, DMF, 46.6 mM, 20.0 °C, 2.0 h”, the ring closure, isolated yield came out at 95.2%. For the compound `CCOC(=O)CC1c2ccc3c(c2)CN(CC3)S(=O)(=O)c2ccc(cc2)OCC=CCn2nnc3c(C)c1ccc32` (stereo not drawn), the ring closure, isolated yield (from C=CCOc1ccc(S(=O)(=O)N2CCc3ccc(C(CC(=O)OCC)c4ccc5c(nnn5C/C=C/C)c4C)cc3C2)cc1, rcm bond, 21-membered ring, Grubbs II, DCM, 40.0 mM, 25.0 °C, 19.0 h) is 12.9%. For `CCOC(=O)CC1c2ccc3c(c2)CN(CC3)S(=O)(=O)N2CCC(CC2)OCC=CCn2nnc3c(C)c1ccc32` (stereo not drawn), the ring closure, yield after HPLC in series [1] (from C=CCOC1CCN(S(=O)(=O)N2CCc3ccc(C(CC(=O)OCC)c4ccc5c(nnn5C/C=C/C)c4C)cc3C2)CC1, rcm bond, Grubbs catalyst, DCM, 6.2 mM, 40.0 °C, 19.0 h) worked out at 89.4%.

With `COC(=O)CC1c2ccc3c(nnn3CCOCCOC3CCN(CC3)C(=O)c3ccc4c(c3)CN1CC4)c2C` (stereo not drawn), the ring closure, isolated yield (from COC(=O)CC(c1ccc2c(nnn2CCOCCOC2CCNCC2)c1C)N1CCc2ccc(C(=O)O)cc2C1, amide bond, 22-membered ring, HATU/DIEA, DMF, 35.4 mM, 20.0 °C, 2.0 h) is 90.4%. The compound `CCOC(=O)CC1c2ccc3c(c2)CN(CC3)C(=O)C2CCN(CCCCCn3nnc4c(C)c1ccc43)CC2` (stereo not drawn) yielded a ring closure, isolated yield (from CCOC(=O)CC(c1ccc2c(c1)CNCC2)c1ccc2c(nnn2CCCCCN2CCC(C(=O)O)CC2)c1C, amide bond, 21-membered ring, HATU/DIEA, DMF, 96.0 mM, 0.0 °C) of 79.5%. For the setting “from C=CCCCn1nnc2c(Cl)c(C(CC(=O)OCc3ccccc3)c3ccc4c(c3)CN(C(=O)N3CCC(C=C)CC3)CC4)ccc21, rcm bond, 21-membered ring, Grubbs II, DCM, 53.3 mM, 19.0 h”, `O=C(CC1c2ccc3c(c2)CN(CC3)C(=O)N2CCC(C=CCCCn3nnc4c(Cl)c1ccc43)CC2)OCc1ccccc1` (stereo not drawn) registered a ring closure, isolated yield of 13.3%. In turn, `CCOC(=O)C[C@@H](c1ccc2c(c1)CNCC2)c1ccc2c(nnn2CCCOCC2CCN(C(=O)Oc3c(F)c(F)c(F)c(F)c3F)CC2)c1C` displayed a ring closure, yield after HPLC in series [1] (the molecule shown is the open-chain precursor, other bond, K2CO3/microwave, DMF, 24.7 mM, 120.0 °C) of 20.9%. With `CCOC(=O)CC1c2cc(C)c3c(c2)CN(CC3)C(=O)c2ccc(cc2)COCCCn2nnc3c(C)c1ccc32` (stereo not drawn), the ring closure, isolated yield (from CCOC(=O)CC(c1cc(C)c2c(c1)CNCC2)c1ccc2c(nnn2CCCOCc2ccc(C(=O)O)cc2)c1C, amide bond, 21-membered ring, HATU/DIEA, DMF, 131.5 mM, 20.0 °C, 2.0 h) amounted to 77.9%. In series [2], `Cc1c2ccc3c1nnn3CCCOCc1ccc(cc1)C(=O)N(C)Cc1cccc(c1)C2CC(=O)O` (stereo not drawn) [Compound 7, 2-(1^4,5-dimethyl-6-oxo-1^1H-9-oxa-5-aza-1(5,1)-benzo[d][1,2,3]triazola-3(1,3), 7(1,4)-dibenzenacyclododecaphane-2-yl)acetic acid] registered an EC50 of 10 to 30 µM. The half-inhibitory concentration (IC50) in series [3] is no more than 100 nM.

Regarding `CCOC(=O)CC(c1ccc2c(c1)CNCC2)c1ccc2c(nnn2CCCCCN2CCN(C(=O)Oc3ccc([N+](=O)[O-])cc3)CC2)c1C` (stereo not drawn), the ring closure, yield after HPLC in series [1] (the molecule shown is the open-chain precursor, other bond, K2CO3 (microwave), DMF, 10.2 mM, 130.0 °C, 2 steps) was 72%.

Broadly, the EC50 is the midpoint of the concentration-response curve. Low readings indicate an effect from little substance, high ones a need for much substance. In general, IC50 refers to the midpoint of a concentration-inhibition curve.
